Reference: patent US20250144099A1, “INK4 TUMOR SUPPRESSOR PROTEINS MEDIATE RESISTANCE TO CDK4/6 KINASE INHIBITORS” (MEMORIAL SLOAN-KETTERING CANCER CENTER, priority 2021, published 2025)

What was measured:
[1] = system: T47D parental and CDK6-overexpressing cells; test: Cell proliferation assay; format: cell-based, human; settings: recorded at day 3, day 5 and day 7
Procedure: Cell viability was measured by Resazurin (R&D Systems, Minneapolis, MN, USA) as described previously (51). Briefly, 1,500 cells were seeded in a 96-well plate and allowed to recover overnight. Cells were treated with drugs at day 0. Resazurin was added to the cells 4 hours prior to the measurements on day 3, day 5 and day 7. Fluorescent intensity was measured using a microplate reader (SpectraMax M5, Molecular Devices, Sunnyvale, CA, USA). IC50 was calculated by GraphPad Prism 7.0 using a sigmoidal regression model.

CDK6-high cells = test: Senescence Green flow cytometry assay; format: cell-based, human; settings: 8 days; BSJ-05-017 500 nM, abemaciclib 100 nM, palbociclib 500 nM
Procedure: (§1) Senescence analysis. […] Cells were harvested using trypsin/EDTA, then stained with the CellEvent Senescence Green Flow Cytometry Assay Kit (Invitrogen) according to the manufacturer's instructions. Briefly, cells were fixed with 2% paraformaldehyde for 15 min at room temperature and stained with the CellEvent Senescence Green Probe for 2 hours at 37° C. without CO2. After incubation, cells were washed with PBS 3 times and resuspended in FACS buffer (PBS with 2% FBS) for analysis on BD Biosciences LSR Fortessa using a 488 nm laser and 530 nm/30 filter (BD Biosciences). Data analysis was performed with FCS Express 7 (De Novo Software).

MCF-7 parental cells = test: Senescence Green staining and cell cycle analysis; format: cell-based, human; settings: 500 nM; senescence 8 days, cell cycle 24 h
Procedure: as §1
Cell cycle analysis. […] Cells were detached from the cell culture dish with trypsin/EDTA, then washed with PBS and fixed in 70% ice-cold EtOH overnight. Prior to staining, EtOH was removed, and cells were washed twice with FACS buffer. Cells were then resuspended in staining buffer containing 1000 μl FACS buffer with 2 μg/ml propidium iodide (Invitrogen) and 100 μg/ml RNase A (Invitrogen). Cell cycle profiles were measured with BD Biosciences LSR Fortessa and analyzed with FCS Express 7.

MOLT4 cells = test: Global quantitative mass spectrometry proteomics; format: cell-based, human; settings: 250 nM, 5 h
Procedure: Molt4 cells were treated with 250 nM of compounds BSJ-05-017 or BSJ-03-096 (singlicate) or DMSO control (biological triplicate) for 5 hours. Cells were harvested by centrifugation and prepared for mass spectrometry as described previously (28). Data were collected as reported (28). LC-MS data were analyzed using Proteome Discoverer 2.4 (Thermo Fisher Scientific), as previously described (28). Reporter ion intensities were normalized and scaled using in-house scripts in the R framework (63). Statistical analysis was carried out using the limma package within the R framework (64).

[2] = system: CDK6-high (FAT-1 loss) tumors; test: Pharmacodynamic study in tumor-bearing mice (immunoblotting of tumors); format: in vivo, NSG mice; settings: 25 mg/kg i.p., 3 consecutive days, tumors collected at 6 h
Procedure: Pharmacodynamic study. NOD.Cg-Prkdc Il2rg<tm1Wjl>/SzJ (NSG) mice were obtained from the Jackson Laboratory (Stock #: 005557). Each mouse was injected with FAT1 loss cells subcutaneously 1 week after the implantation of estradiol pellets (25 mg). After the tumors reached 200 mm^3, mice were treated for 3 consecutive days with BSJ-05-017 at 25 mg/kg. Tumors were collected at 6 h. Lysates were prepared by homogenization in SDS-lysis buffer (˜1 ml/mg tissue) (50 mM Tris-HCl pH 7.4, 2% SDS) and boiled for 10 min, followed by brief sonication as described previously (65). Lysates were cleared by centrifugation at 14,000 g for 10 min and the supernatant was collected for western blotting.

[3] = system: patient-derived xenograft models; test: Patient-derived xenograft tumor growth; format: in vivo, mice; settings: two patient-derived xenograft models; ribociclib at clinical equivalent dose

CC(=O)c1c(C)c2cnc(Nc3ccc(N4CCN(CCCCC(=O)N[C@H](C(=O)N5C[C@H](O)C[C@H]5C(=O)N[C@@H](C)c5ccc(-c6scnc6C)cc5)C(C)(C)C)CC4)cn3)nc2n(C2CCCC2)c1=O [BSJ-05-017, (2S,4R)-1-((S)-2-(5-(4-(6-((6-acetyl-8-cyclopentyl-5-methyl-7-oxo-7,8-dihydropyrido[2,3-d]pyrimidin-2-yl)amino)pyridin-3-yl)piperazin-1-yl)pentanamido)-3,3-dimethylbutanoyl)-4-hydroxy-N—((S)-1-(4-(4-methylthiazol-5-yl)phenyl)ethyl)pyrrolidine-2-carboxamide]
inhibition of cell growth [1]: inhibits the growth of both T47D parental and CDK6-overexpressing cells | senescence-marker positive cells (CDK6-high cells): significantly higher number of cells into senescence compared with abemaciclib or palbociclib | senescence and cell cycle arrest (MCF-7 parental cells): induces senescence and cell cycle arrest to a same extent as abemaciclib and palbociclib | selectivity in global proteomics (MOLT4 cells): highly selective for CDK4 and CDK6 | Rb1 phosphorylation and E2F1 expression in tumors [2]: significant suppression of Rb1 phosphorylation and E2F1 expression | degradation of CDK4 and CDK6 in tumors [2]: near complete degradation of CDK4 and CDK6 | inhibition of tumor growth [3]: effective in inhibiting tumor growth
